According to patent US20210220494A1, “COMPOSITIONS AND METHODS FOR TARGETED PARTICLE PENETRATION, DISTRIBUTION, AND RESPONSE IN MALIGNANT BRAIN TUMORS” (Memorial Sloan Kettering Cancer Center, priority 2016, published 2021):

Tests used:
ECLC26 flank tumor = conditions: ECLC26 flank tumors, multi-dose, caliper measurements
Experimental: Tumor volume was measured using caliper measurements of the maximal dimensions of the tumor daily.
Nude mice were implanted with 2 million ECLC26 cells. Mice bearing tumors were treated by i.v. of 200 μL saline or 15 μM Gef-NDC for 2 doses of Gavage with 15 mg/ml Gefitinib, 10 μL/g for 10 days.

[1] = cited from earlier work
NSCLC CNS metastases = conditions: pulsatile high-dose, cited from earlier work
macrophages = conditions: cited from earlier work

Question: With `COc1cc2ncnc(Nc3ccc(F)c(Cl)c3)c2cc1OCCCN1CCOCC1` [Gefitinib, gefitinib] as the compound, how does the “tumor volume over time” value (ECLC26 flank tumor) read?
Answer: Its value is “steady decrease in tumor volume”.

Question: What about the protein binding [1] of the same compound?
Answer: The protein binding was “highly protein bound”.

Question: With `C#Cc1cccc(Nc2ncnc3cc(OCCOC)c(OCCOC)cc23)c1` [erlotinib] as the compound, how does the “response of CNS metastases” value (NSCLC CNS metastases; 3 patients) read?
Answer: The value was “the response is unpredictable, even at high dose”.

Question: And the CNS penetration (NSCLC CNS metastases; patients)?
Answer: The CNS penetration was “improves CNS penetration for NSCLC metastases”.

Question: With `CNC(=O)c1cc(Oc2ccc3nc(N[C@@H]4CCCC[C@H]4O)sc3c2)ccn1` [BLZ945] as the compound, how does the “expression of M2 polarization markers in TAMs” value (macrophages) read?
Answer: Its value is “decreased expression of M2 polarization markers”.

Question: And the “phagocytic activity of macrophages” value (macrophages)?
Answer: Its value is “upregulated”.
